Test results reported in patent US10738057B2, “Tertiary alcohols as PI3K-γ inhibitors” (Incyte Corporation, priority 2017, dated 2020).
Counter-ions that a name gives are not always drawn.

Assays:
[1] = target: PI3Kγ (p110γ) Recombinant Human Protein (Homo sapiens (Human), UniProt P48736); experiment: PI3K-γ scintillation proximity assay; format: biochemical; details: 20 μM PIP2, 2 μM ATP, 13 nM PI3Kγ, 120 min, room temperature
In short: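 Radiometric SPA in 20 mM MOPS pH 6.7, 10 mM MgCl2, 5 mM DTT, 0.03% CHAPS, 2% DMSO. Stopped with EDTA and WGA SPA beads for scintillation counting. IC50 fitted from % solvent-control activity versus log concentration.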

[2] = target: PI3Kδ (p110δ/p85α) Recombinant Human Protein (Homo sapiens (Human), UniProt O00329); experiment: PI3Kδ scintillation proximity assay; format: biochemical; details: 20 μM PIP2, 2 μM ATP, 3.4 nM PI3Kδ, 120 min, room temperature; read-out: PI3Kδ IC50
In short: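 Recombinant human p110δ/p85α was run at room temperature in 20 mM MOPS pH 6.7, 10 mM MgCl2, 5 mM DTT, 0.03% CHAPS, 2% DMSO. Substrates were 20 µM PIP2 and 2 µM ATP with [γ-33P]ATP. Product was captured overnight on WGA SPA beads and counted by scintillation; IC50 fitted from percent of solvent control versus log concentration.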

[3] = tested on: Phosphorylated Ribosomal Protein S6 (RPS6) in THP-1 cells; experiment: THP-1 RPS6 ELISA assay; format: cell-based, Human; details: Homo sapiens, THP-1, THP-1 cells, serum starved, 2 h compound, 10 nM MCP-1 for 15 min, phospho-RPS6 ELISA; read-out: PI3Kγ_THP1_RPS6_ELISA IC50
In short: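 Serum-starved THP-1 cells (2×10^5/well, RPMI) preincubated with compound 2 h at 37° C, then stimulated with 10 nM MCP-1 for 15 min. Lysates assayed by phospho-RPS6 ELISA, absorbance 450 nm (540 nm correction); IC50 from percent inhibition versus log concentration.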

Chain of PI3Kδ (p110δ/p85α) Recombinant Human Protein (O00329 whole entry): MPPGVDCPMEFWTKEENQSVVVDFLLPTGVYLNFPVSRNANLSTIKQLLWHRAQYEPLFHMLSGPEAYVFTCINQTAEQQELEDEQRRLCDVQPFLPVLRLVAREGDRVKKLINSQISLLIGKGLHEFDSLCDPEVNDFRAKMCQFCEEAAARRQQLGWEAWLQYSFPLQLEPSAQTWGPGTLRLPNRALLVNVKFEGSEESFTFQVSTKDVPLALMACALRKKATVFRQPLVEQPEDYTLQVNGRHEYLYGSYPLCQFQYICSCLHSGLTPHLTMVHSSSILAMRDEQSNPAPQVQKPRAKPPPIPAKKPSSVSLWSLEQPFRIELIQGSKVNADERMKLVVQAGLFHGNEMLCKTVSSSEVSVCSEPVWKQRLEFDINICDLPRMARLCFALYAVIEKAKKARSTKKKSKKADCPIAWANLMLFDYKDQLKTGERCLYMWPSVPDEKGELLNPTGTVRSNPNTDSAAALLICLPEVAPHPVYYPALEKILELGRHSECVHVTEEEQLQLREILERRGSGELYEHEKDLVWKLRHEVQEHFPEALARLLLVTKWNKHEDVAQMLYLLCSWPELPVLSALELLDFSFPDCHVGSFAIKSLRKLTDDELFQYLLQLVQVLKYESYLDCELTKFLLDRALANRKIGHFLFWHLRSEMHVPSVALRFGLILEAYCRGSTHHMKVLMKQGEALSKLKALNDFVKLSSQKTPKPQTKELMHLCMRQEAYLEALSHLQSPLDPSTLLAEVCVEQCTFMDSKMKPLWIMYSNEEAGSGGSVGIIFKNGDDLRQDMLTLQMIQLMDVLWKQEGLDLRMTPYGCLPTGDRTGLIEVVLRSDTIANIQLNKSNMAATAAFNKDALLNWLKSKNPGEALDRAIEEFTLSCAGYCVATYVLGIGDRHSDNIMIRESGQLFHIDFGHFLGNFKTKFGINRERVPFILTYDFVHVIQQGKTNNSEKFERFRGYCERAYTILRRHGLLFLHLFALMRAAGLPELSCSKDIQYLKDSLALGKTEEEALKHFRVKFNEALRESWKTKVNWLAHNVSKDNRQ
Chain of PI3Kδ (p110δ/p85α) Recombinant Human Protein (P27986 whole entry partner): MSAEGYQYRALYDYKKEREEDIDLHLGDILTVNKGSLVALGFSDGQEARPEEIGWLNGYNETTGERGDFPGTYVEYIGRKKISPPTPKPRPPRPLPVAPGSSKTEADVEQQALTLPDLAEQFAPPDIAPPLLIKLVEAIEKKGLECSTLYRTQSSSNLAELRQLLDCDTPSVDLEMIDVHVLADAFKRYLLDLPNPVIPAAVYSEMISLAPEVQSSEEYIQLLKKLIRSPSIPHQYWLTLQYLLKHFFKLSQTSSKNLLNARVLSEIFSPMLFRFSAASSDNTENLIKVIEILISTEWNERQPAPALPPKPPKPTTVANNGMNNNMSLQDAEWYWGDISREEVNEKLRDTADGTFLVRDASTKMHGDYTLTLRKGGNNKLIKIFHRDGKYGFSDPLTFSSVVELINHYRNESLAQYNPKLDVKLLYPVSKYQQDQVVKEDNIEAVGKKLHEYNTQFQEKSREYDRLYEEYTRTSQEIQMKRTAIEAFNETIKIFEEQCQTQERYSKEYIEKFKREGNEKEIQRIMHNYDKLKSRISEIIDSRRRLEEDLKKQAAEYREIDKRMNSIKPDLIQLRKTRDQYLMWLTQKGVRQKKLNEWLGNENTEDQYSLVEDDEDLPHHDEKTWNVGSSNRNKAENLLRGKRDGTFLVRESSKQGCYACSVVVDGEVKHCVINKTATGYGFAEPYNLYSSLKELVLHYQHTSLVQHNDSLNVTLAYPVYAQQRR
Chain of PI3Kγ (p110γ) Recombinant Human Protein (P48736 whole entry): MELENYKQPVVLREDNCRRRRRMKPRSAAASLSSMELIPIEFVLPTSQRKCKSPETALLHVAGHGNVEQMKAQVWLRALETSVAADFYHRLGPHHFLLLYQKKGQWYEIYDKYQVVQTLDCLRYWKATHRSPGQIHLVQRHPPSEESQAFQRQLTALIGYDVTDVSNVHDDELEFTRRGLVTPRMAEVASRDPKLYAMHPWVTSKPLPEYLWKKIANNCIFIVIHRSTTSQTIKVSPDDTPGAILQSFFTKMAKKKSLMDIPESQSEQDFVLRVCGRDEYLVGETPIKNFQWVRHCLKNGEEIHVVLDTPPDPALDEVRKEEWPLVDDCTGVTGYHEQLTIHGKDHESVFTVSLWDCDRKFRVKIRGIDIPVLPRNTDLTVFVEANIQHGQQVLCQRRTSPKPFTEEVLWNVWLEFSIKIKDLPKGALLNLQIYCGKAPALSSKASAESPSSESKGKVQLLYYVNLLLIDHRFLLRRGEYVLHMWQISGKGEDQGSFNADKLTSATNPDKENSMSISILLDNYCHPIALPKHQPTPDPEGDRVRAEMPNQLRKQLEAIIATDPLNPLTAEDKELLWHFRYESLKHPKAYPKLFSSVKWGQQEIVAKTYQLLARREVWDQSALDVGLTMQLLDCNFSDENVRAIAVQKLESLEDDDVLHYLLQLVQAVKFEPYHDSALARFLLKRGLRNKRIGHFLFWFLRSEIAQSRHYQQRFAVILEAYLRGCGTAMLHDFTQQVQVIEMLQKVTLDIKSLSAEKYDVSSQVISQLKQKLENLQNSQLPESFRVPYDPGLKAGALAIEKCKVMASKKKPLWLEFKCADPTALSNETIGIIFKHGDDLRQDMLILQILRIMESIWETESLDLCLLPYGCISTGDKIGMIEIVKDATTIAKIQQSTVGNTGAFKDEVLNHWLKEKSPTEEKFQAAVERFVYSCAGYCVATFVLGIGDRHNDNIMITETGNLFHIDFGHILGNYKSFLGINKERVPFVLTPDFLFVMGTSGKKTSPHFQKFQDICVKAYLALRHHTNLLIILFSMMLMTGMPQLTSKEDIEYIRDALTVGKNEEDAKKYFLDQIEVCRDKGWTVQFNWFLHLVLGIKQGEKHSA

IC50 [1] [nM]	IC50 [2] [nM]	IC50 [3] [nM]	Structure (SMILES)
< 100	< 100	> 1000	Cc1ccc(C(C)(O)C(F)(F)F)cc1-c1cnc2c(N)nc(C(=O)NCC3(C#N)CCC3)cn12 (stereo not drawn) [Example 283, 8-Amino-N-((1-cyanocyclobutyl)methyl)-3-(2-methyl-5-(1,1,1-trifluoro-2-hydroxypropan-2-yl)phenyl)imidazo[1,2-a]pyrazine-6-carboxamide trifluoroacetate salt]
< 100	100 to 500	< 100	Cc1ccc(C(O)(C(N)=O)C(F)(F)F)cc1-c1cnc2c(N)nc(C(=O)NCC(C)(C)O)cn12 (stereo not drawn) [Example 284, 8-Amino-3-(5-(3-amino-1,1,1-trifluoro-2-hydroxy-3-oxopropan-2-yl)-2-methylphenyl)-N-(2-hydroxy-2-methylpropyl)imidazo[1,2-a]pyrazine-6-carboxamide]
< 100	500 to 2000	100 to 500	Cc1ccc(C(O)(C(N)=O)C(F)(F)F)cc1-c1cnc2c(N)nc(C(=O)NC3CCOCC3)cn12 (stereo not drawn) [Example 285, 8-Amino-3-(5-(3-amino-1,1,1-trifluoro-2-hydroxy-3-oxopropan-2-yl)-2-methylphenyl)-N-(tetrahydro-2H-pyran-4-yl)imidazo[1,2-a]pyrazine-6-carboxamide]
< 100	100 to 500	< 100	Cc1ccc(C(O)(C(N)=O)C(F)(F)F)cc1-c1cnc2c(N)nc(C(=O)NC34CC(F)(C3)C4)cn12 (stereo not drawn) [Example 288, 8-Amino-3-(5-(3-amino-1,1,1-trifluoro-2-hydroxy-3-oxopropan-2-yl)-2-methylphenyl)-N-(3-fluorobicyclo[1.1.1]pentan-1-yl)imidazo[1,2-a]pyrazine-6-carboxamide trifluoroacetate salt]
< 100	100 to 500	< 100	[2H]C([2H])([2H])NC(=O)C(O)(c1ccc(C)c(-c2cnc3c(N)nc(C(=O)NC(CC#N)C(F)(F)F)cn23)c1)C(F)(F)F (stereo not drawn) [Example 289, 8-Amino-N-(3-cyano-1,1,1-trifluoropropan-2-yl)-3-(2-methyl-5-(1,1,1-trifluoro-2-hydroxy-3-((methyl-d3)amino)-3-oxopropan-2-yl)phenyl)imidazo[1,2-a]pyrazine-6-carboxamide trifluoroacetate salt]
